Reference: publication PMC12118337, “Development of a Peptide Inhibitor Targeting the C‐SH2 Domain of the SHP2 Phosphatase” (Chembiochem, 2025)
Non-standard residues stand in square brackets, D forms with d. Residues, ends and D or L forms follow the SMILES beside them. pY = N[C@@H](Cc1ccc(OP(=O)(O)O)cc1)C(=O)O

What was measured:
SHP2 C‐SH2 domain = molecular target: T1, SHP2 C‐SH2 domain (Homo sapiens, UniProt Q06124); experiment: Isothermal titration calorimetry (ITC), SHP2 C-SH2 domain; assay type: binding; details: 20 mM Tris-HCl pH 7.6, 150 mM NaCl, 1:1 stoichiometry assumed, one experiment, read-out: K D, C‐SH2 (ITC)
T1 construct: SHP2 N-SH2 domain (1–105), C-SH2 domain (106–220), PTP domain (224–541) and; His6 (pETM22 vector) (N, cleaved yes); made in house; host or cells: E. coli BL21(DE3)
T1 sequence (Q06124 106-220): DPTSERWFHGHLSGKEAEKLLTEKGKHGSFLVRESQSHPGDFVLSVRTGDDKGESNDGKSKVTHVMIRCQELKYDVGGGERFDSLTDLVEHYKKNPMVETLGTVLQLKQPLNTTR
Description: (§1) concentration of 100 nM in a final volume of 200 µL. For baseline subtraction, each peptide was added to FP buffer, instead of protein, with a final peptide concentration of 100 nM in a final volume of 200 µL. Samples were mixed gently then 3 x 60 µL of each sample was transferred into triplicate wells in a 96-well plate (OptiPlate-96 F Black; PerkinElmer). The FP was immediately measured on a Synergy H1 Microplate Reader (BioTek) with the excitation and emission monitored at 485 nm and 528 nm, respectively, over 30 minutes. FP values were automatically calculated by the Gen5 3.03 (BioTek) software associated with the microplate reader. Data were analysed in Excel 2016 by subtracting baseline values from FP values at 10 minutes. Data were then further analysed in GraphPad Prism 6 by plotting the baseline subtracted FP values against the protein concentration and fitting the data to a variable slope model of non-linear regression to obtain the KD values. Data are from three independent experiments, each performed in technical triplicates.
(§2) 5. Isothermal titration calorimetry
(§3) Isothermal titration calorimetry (ITC) was used to measure the binding of the Ac-ITSM(pTyr) to the SHP2 C-SH2 or N-SH2 domain. […]

SHP2 N‐SH2 domain = molecular target: T2, SHP2 N‐SH2 domain (Homo sapiens, UniProt Q06124); experiment: Isothermal titration calorimetry (ITC), SHP2 N-SH2 domain; assay type: binding; details: 20 mM Tris-HCl pH 7.6, 150 mM NaCl, 1:1 stoichiometry assumed, one experiment, read-out: K D, N‐SH2 (ITC)
T2 construct: SHP2 N-SH2 domain (1–105), C-SH2 domain (106–220), PTP domain (224–541) and; His6 (pETM22 vector) (N, cleaved yes); made in house; host or cells: E. coli BL21(DE3)
T2 sequence (Q06124 1-105): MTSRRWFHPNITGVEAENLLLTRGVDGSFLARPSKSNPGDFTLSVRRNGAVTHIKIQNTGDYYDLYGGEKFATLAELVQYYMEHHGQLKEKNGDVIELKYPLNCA
Description: as §1, §2, §3

full‐length SHP2 = molecular target: T3, full‐length SHP2 (Homo sapiens, UniProt Q06124); experiment: DiFMUP phosphatase assay, peptide activation (no activator); assay type: biochemical; details: 0.5 nM full-length SHP2, no tandem activator, peptide 0.096 nM – 51.2 µM
T3 construct: 1–525) proteins were prepared; His-SUMO3 (pETM11-SUMO3 vector) (N, cleaved yes); made in house; host or cells: E. coli BL21(DE3)
T3 sequence (Q06124 1-525): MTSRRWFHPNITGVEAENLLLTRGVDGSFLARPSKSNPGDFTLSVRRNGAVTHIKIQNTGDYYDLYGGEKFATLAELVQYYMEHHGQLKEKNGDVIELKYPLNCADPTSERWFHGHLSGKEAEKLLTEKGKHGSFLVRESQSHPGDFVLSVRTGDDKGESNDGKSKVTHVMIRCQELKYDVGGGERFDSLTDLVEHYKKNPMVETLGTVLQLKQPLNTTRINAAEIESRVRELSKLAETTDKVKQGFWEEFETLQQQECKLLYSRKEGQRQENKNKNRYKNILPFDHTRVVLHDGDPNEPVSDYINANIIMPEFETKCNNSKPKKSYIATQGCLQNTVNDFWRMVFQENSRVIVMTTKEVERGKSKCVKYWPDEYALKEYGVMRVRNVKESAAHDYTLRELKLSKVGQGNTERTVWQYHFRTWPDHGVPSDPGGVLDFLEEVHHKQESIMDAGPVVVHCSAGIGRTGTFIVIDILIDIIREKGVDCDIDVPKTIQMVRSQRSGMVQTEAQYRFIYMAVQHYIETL
Description: 6. DiFMUP phosphatase assays
SHP2 dephosphorylation of the fluorogenic substrate 6,8-difluoro-4-methylumbiliferyl phosphate (DiFMUP) was measured to evaluate the effect of acetylated peptides on SHP2 activity. Final concentrations of 0.5 nM full-length SHP2, 200 µM DiFMUP (Invitrogen) and 26 nM bisphosphorylated tandem ITIM-[dPEG4]2-ITSM (CASLO ApS) were used, unless stated otherwise, per well in 96-well plates (OptiPlate-96 F Black; PerkinElmer). For peptide activation assays, each well contained 60 µL of reaction buffer (50 mM HEPES pH 7.6, 150 mM NaCl, 1 mM EDTA, 0.05% Tween 20, freshly added 5 mM DTT), 10 µL of SHP2 and 20 µL of the test peptide (0.096 nM – 51.2 µM final concentration). For peptide inhibition assays in the presence of a SHP2 activator, each well contained 40 µL of reaction buffer (50 mM HEPES pH 7.6, 150 mM NaCl, 1 mM EDTA, 0.05% Tween 20, freshly added 5 mM DTT), 10 µL of SHP2 and 40 µL of previously mixed bisphosphorylated tandem ITIM-[dPEG4]2-ITSM activator and test peptide (0.096 nM – 51.2 µM or 0.376 nM – 200 µM final concentration). […] The fluorescence was immediately measured on a Synergy H1 Microplate Reader (BioTek) with the excitation and emission monitored at 358 nm and 452 nm, respectively, over 30 minutes. Data were analysed in Excel 2016 by subtracting background values from emission values and calculating the slope of the emission profiles. […]

With `CC[C@H](C)[C@H](NC(=O)[C@@H](NC(=O)[C@H](C)NC(=O)[C@H](Cc1ccc(OP(=O)(O)O)cc1)NC(=O)[C@H](CCC(=O)O)NC(=O)[C@@H](NC(=O)[C@H](CCC(N)=O)NC(=O)[C@H](CCC(=O)O)NC(C)=O)[C@@H](C)O)[C@@H](C)O)C(=O)N[C@H](C(=O)N[C@@H](Cc1ccccc1)C(=O)N1CCC[C@H]1C(N)=O)C(C)C` [Ac‐ITSM(pTyr)] (Ac-EQTE[pY]ATIVFP-NH2) the Kd (SHP2 C‐SH2 domain) was 58.8 nM, the Kd (SHP2 N‐SH2 domain) was 106 nM and the “SHP2 phosphatase activity with peptide alone (activation)” value (full‐length SHP2) was “increased”.
